Reference: the CheMixHub viscosity set
± gives the uncertainty stated by the source.

Assay: xn = mol fraction of the nth substance listed

CCCCOC(C)=O + CCCCCCCCCCCCCCCC
298.15 K, 101.3 kPa
Conditions	viscosity [mPa·s]
x1 = 0.0797	2.778 ± 0.025
x1 = 0.127	2.606 ± 0.024
x1 = 0.2518	2.227 ± 0.02
x1 = 0.3552	1.944 ± 0.017
x1 = 0.4446	1.716 ± 0.015
x1 = 0.5252	1.539 ± 0.013
x1 = 0.5544	1.484 ± 0.013
x1 = 0.594	1.39 ± 0.012
x1 = 0.7165	1.149 ± 0.01
x1 = 0.8169	0.9655 ± 0.0086
x1 = 0.8982	0.834 ± 0.0075
x1 = 0.952	0.7259 ± 0.0066

C=COC(C)=O + Cc1cccc(C)c1
viscosity [mPa·s], 101 kPa
Conditions	x1 = 0.1482	x1 = 0.2434	x1 = 0.3456	x1 = 0.4518	x1 = 0.5741	x1 = 0.6832	x1 = 0.7598	x1 = 0.8817	x1 = 0.9602
303.15 K	0.52 ± 0.007	0.502 ± 0.006	0.483 ± 0.006	0.465 ± 0.006	0.445 ± 0.006	0.428 ± 0.006	0.414 ± 0.005	0.401 ± 0.005	0.392 ± 0.005
313.15 K	0.469 ± 0.006	0.452 ± 0.006	0.434 ± 0.006	0.416 ± 0.005	0.399 ± 0.005	0.383 ± 0.005	0.37 ± 0.005	0.358 ± 0.005	0.35 ± 0.005

Oc1ccccc1Cl + CN(C)c1ccccc1
101 kPa
Conditions	viscosity [mPa·s]
293.15 K, x1 = 0.1395	1.859 ± 0.019
293.15 K, x1 = 0.2654	2.43 ± 0.025
293.15 K, x1 = 0.3923	3.05 ± 0.03
293.15 K, x1 = 0.5102	3.7 ± 0.04
293.15 K, x1 = 0.5898	4.14 ± 0.05
293.15 K, x1 = 0.6926	4.69 ± 0.06
293.15 K, x1 = 0.743	4.89 ± 0.06
293.15 K, x1 = 0.7994	5 ± 0.07
293.15 K, x1 = 0.8299	4.98 ± 0.07
293.15 K, x1 = 0.896	4.74 ± 0.06
298 K, x1 = 0.1002	1.53 ± 0.039
298 K, x1 = 0.199	1.698 ± 0.044
298 K, x1 = 0.3025	2.194 ± 0.056
298 K, x1 = 0.4016	2.558 ± 0.066
298 K, x1 = 0.502	3.036 ± 0.078
298 K, x1 = 0.6009	3.48 ± 0.089
298 K, x1 = 0.6991	3.758 ± 0.096
298 K, x1 = 0.8	3.852 ± 0.099
298 K, x1 = 0.9019	3.691 ± 0.094
303 K, x1 = 0.1002	1.384 ± 0.036
303 K, x1 = 0.199	1.522 ± 0.039
303 K, x1 = 0.3025	1.937 ± 0.05
303 K, x1 = 0.4016	2.2 ± 0.056
303 K, x1 = 0.502	2.564 ± 0.066
303 K, x1 = 0.6009	2.904 ± 0.074
303 K, x1 = 0.6991	3.121 ± 0.08
303 K, x1 = 0.8	3.212 ± 0.082
303 K, x1 = 0.9019	3.106 ± 0.08
303.15 K, x1 = 0.1395	1.473 ± 0.015
303.15 K, x1 = 0.2654	1.89 ± 0.02
303.15 K, x1 = 0.3923	2.35 ± 0.03
303.15 K, x1 = 0.5102	2.79 ± 0.03
303.15 K, x1 = 0.5898	3.09 ± 0.03
303.15 K, x1 = 0.6926	3.41 ± 0.04
303.15 K, x1 = 0.743	3.505 ± 0.039
303.15 K, x1 = 0.7994	3.545 ± 0.04
303.15 K, x1 = 0.8299	3.545 ± 0.04
303.15 K, x1 = 0.896	3.41 ± 0.04
308 K, x1 = 0.1002	1.254 ± 0.032
308 K, x1 = 0.199	1.366 ± 0.035
308 K, x1 = 0.3025	1.702 ± 0.044
308 K, x1 = 0.4016	1.951 ± 0.05
308 K, x1 = 0.502	2.221 ± 0.057
308 K, x1 = 0.6009	2.476 ± 0.063
308 K, x1 = 0.6991	2.681 ± 0.069
308 K, x1 = 0.8	2.757 ± 0.071
308 K, x1 = 0.9019	2.662 ± 0.068
313 K, x1 = 0.1002	1.171 ± 0.03
313 K, x1 = 0.199	1.234 ± 0.032
313 K, x1 = 0.3025	1.527 ± 0.039
313 K, x1 = 0.4016	1.736 ± 0.045
313 K, x1 = 0.502	1.965 ± 0.05
313 K, x1 = 0.6009	2.152 ± 0.055
313 K, x1 = 0.6991	2.335 ± 0.06
313 K, x1 = 0.8	2.397 ± 0.061
313 K, x1 = 0.9019	2.36 ± 0.061
313.15 K, x1 = 0.1395	1.243 ± 0.012
313.15 K, x1 = 0.2654	1.41 ± 0.014
313.15 K, x1 = 0.3923	1.66 ± 0.017
313.15 K, x1 = 0.5102	1.915 ± 0.019
313.15 K, x1 = 0.5898	2.085 ± 0.021
313.15 K, x1 = 0.6926	2.305 ± 0.023
313.15 K, x1 = 0.743	2.4 ± 0.02
313.15 K, x1 = 0.7994	2.47 ± 0.03
313.15 K, x1 = 0.8299	2.475 ± 0.025
313.15 K, x1 = 0.896	2.45 ± 0.03
318 K, x1 = 0.1002	1.077 ± 0.028
318 K, x1 = 0.199	1.122 ± 0.029
318 K, x1 = 0.3025	1.382 ± 0.036
318 K, x1 = 0.4016	1.56 ± 0.04
318 K, x1 = 0.502	1.728 ± 0.044
318 K, x1 = 0.6009	1.899 ± 0.049
318 K, x1 = 0.6991	2.05 ± 0.053
318 K, x1 = 0.8	2.173 ± 0.056
318 K, x1 = 0.9019	2.028 ± 0.052

CC(C)c1ccccc1 + CN(C)c1ccccc1
viscosity [mPa·s], 101 kPa
Conditions	x1 = 0.2	x1 = 0.4	x1 = 0.6	x1 = 0.8
293.15 K	1.228 ± 0.021	1.085 ± 0.019	0.963 ± 0.017	0.865 ± 0.015
313.15 K	0.915 ± 0.016	0.817 ± 0.014	0.733 ± 0.013	0.666 ± 0.012

CCC[n+]1ccccc1.F[B-](F)(F)F + CO
101 kPa
Conditions	viscosity [mPa·s]
303.15 K, x1 = 0.8956	59.95 ± 1.1
323.15 K, x1 = 0.3918	4.475 ± 0.1

CN1CCCN(C)C1=O + CCCCCCCCn1cc[n+](C)c1.[Cl-]
308.15 K, 100 kPa
Conditions	viscosity [mPa·s]
x2 = 0.0999	7.275 ± 0.31
x2 = 0.2997	61.15 ± 2.6

Oc1ccccc1Cl + CCN(CC)CC
298 K, 101.33 kPa
Conditions	viscosity [mPa·s]
x1 = 0.074	0.447 ± 0.0089
x1 = 0.305	1.41 ± 0.028
x1 = 0.408	3.58 ± 0.072
x1 = 0.473	7.81 ± 0.16
x1 = 0.552	26.2 ± 0.52
x1 = 0.616	109 ± 2.2
x1 = 0.65	255 ± 5.1
x1 = 0.703	529 ± 11
x1 = 0.72	594 ± 12
x1 = 0.751	451 ± 9
x1 = 0.769	343 ± 6.9
x1 = 0.797	213 ± 4.3
x1 = 0.843	68.9 ± 1.4
x1 = 0.87	34.3 ± 0.69
x1 = 0.901	18.3 ± 0.37
x1 = 0.956	5.91 ± 0.12

CCCCOC(C)=O + CCCCCCCCO
viscosity [mPa·s], 101 kPa
Conditions	x2 = 0.085	x2 = 0.1729	x2 = 0.2638	x2 = 0.3579	x2 = 0.4554	x2 = 0.5564	x2 = 0.6611	x2 = 0.7698	x2 = 0.8827
298.15 K	0.884 ± 0.053	1.13 ± 0.068	–	1.808 ± 0.11	2.27 ± 0.14	2.845 ± 0.17	3.578 ± 0.22	4.535 ± 0.27	5.81 ± 0.35
303.15 K	0.813 ± 0.049	1.03 ± 0.062	1.298 ± 0.078	1.623 ± 0.098	2.017 ± 0.12	2.505 ± 0.15	3.119 ± 0.19	3.918 ± 0.24	4.98 ± 0.3
308.15 K	0.748 ± 0.045	0.938 ± 0.057	1.171 ± 0.071	1.453 ± 0.088	1.789 ± 0.11	2.197 ± 0.13	2.71 ± 0.16	3.378 ± 0.2	4.252 ± 0.26
313.15 K	0.689 ± 0.042	0.855 ± 0.052	1.059 ± 0.064	1.305 ± 0.079	1.591 ± 0.096	1.938 ± 0.12	2.372 ± 0.14	2.932 ± 0.18	3.66 ± 0.22

CCCCCCCC(=O)O + ClC(Cl)(Cl)Cl
298.15 K, 101 kPa
Conditions	viscosity [mPa·s]
x1 = 0.05	1.011 ± 0.027
x1 = 0.11	1.124 ± 0.029
x1 = 0.16	1.248 ± 0.033
x1 = 0.21	1.38 ± 0.036
x1 = 0.42	2.021 ± 0.053
x1 = 0.52	2.406 ± 0.063
x1 = 0.62	2.867 ± 0.075
x1 = 0.81	3.905 ± 0.1

CCCN + CCCCCO
viscosity [mPa·s], 101.33 kPa
Conditions	x1 = 0.0915	x1 = 0.1847	x1 = 0.3069	x1 = 0.4139	x1 = 0.4894	x1 = 0.581	x1 = 0.7163	x1 = 0.8117	x1 = 0.9
303.15 K	2.504 ± 0.015	2.167 ± 0.013	1.755 ± 0.011	1.431 ± 0.0089	1.224 ± 0.0077	0.9914 ± 0.0063	0.7168 ± 0.0048	0.5615 ± 0.0041	0.4508 ± 0.0036
313.15 K	2.066 ± 0.013	1.79 ± 0.011	1.437 ± 0.0091	1.176 ± 0.0075	1.003 ± 0.0065	0.8193 ± 0.0054	0.6111 ± 0.0043	0.488 ± 0.0037	0.3958 ± 0.0034

CC(C)c1ccccc1 + CCc1ccccc1
101.33 kPa, x1 = 0.4675
Conditions	viscosity [mPa·s]
293.15 K	0.696 ± 0.004
313.15 K	0.545 ± 0.003

CCCN + CCO
Conditions	viscosity [mPa·s]
298.15 K, 100 kPa, x2 = 0.0515	0.3851 ± 0.0044
298.15 K, 100 kPa, x2 = 0.098	0.4053 ± 0.0046
298.15 K, 100 kPa, x2 = 0.2026	0.4571 ± 0.0052
298.15 K, 100 kPa, x2 = 0.2763	0.4993 ± 0.0056
298.15 K, 100 kPa, x2 = 0.3874	0.5717 ± 0.0064
298.15 K, 100 kPa, x2 = 0.4986	0.6539 ± 0.0073
298.15 K, 100 kPa, x2 = 0.6013	0.7371 ± 0.0081
298.15 K, 100 kPa, x2 = 0.7485	0.865 ± 0.0095
298.15 K, 100 kPa, x2 = 0.7991	0.9101 ± 0.0099
298.15 K, 100 kPa, x2 = 0.8981	0.9984 ± 0.011
298.15 K, 100 kPa, x2 = 0.961	1.052 ± 0.011
303.15 K, 101.33 kPa, x1 = 0.1084	0.9336 ± 0.0062
303.15 K, 101.33 kPa, x1 = 0.2091	0.8629 ± 0.0058
303.15 K, 101.33 kPa, x1 = 0.3178	0.7773 ± 0.0052
303.15 K, 101.33 kPa, x1 = 0.4096	0.7051 ± 0.0048
303.15 K, 101.33 kPa, x1 = 0.5111	0.6253 ± 0.0044
303.15 K, 101.33 kPa, x1 = 0.6177	0.5566 ± 0.0041
303.15 K, 101.33 kPa, x1 = 0.7059	0.5029 ± 0.0038
303.15 K, 101.33 kPa, x1 = 0.8061	0.4453 ± 0.0036
303.15 K, 101.33 kPa, x1 = 0.901	0.3982 ± 0.0034
313.15 K, 101.33 kPa, x1 = 0.1084	0.7854 ± 0.0054
313.15 K, 101.33 kPa, x1 = 0.2091	0.7216 ± 0.005
313.15 K, 101.33 kPa, x1 = 0.3178	0.6541 ± 0.0046
313.15 K, 101.33 kPa, x1 = 0.4096	0.5979 ± 0.0043
313.15 K, 101.33 kPa, x1 = 0.5111	0.5352 ± 0.004
313.15 K, 101.33 kPa, x1 = 0.6177	0.475 ± 0.0037
313.15 K, 101.33 kPa, x1 = 0.7059	0.4325 ± 0.0035
313.15 K, 101.33 kPa, x1 = 0.8061	0.3864 ± 0.0033
313.15 K, 101.33 kPa, x1 = 0.901	0.3474 ± 0.0032

Oc1ccccc1Cl + CCO
Conditions	viscosity [mPa·s]
298.15 K, 101 kPa, x1 = 0.5	1.452 ± 0.014
